Test system: NFkB
Experiment: NFkB reporter cell line (HT29) stimulated with TNFalpha or gram negative bacterium, in conditioned media
Format: cell-based
Conditions: HT29 NFkB reporter cells; cell culture media fermented with Bifidobacterium longum subsp infantis and the substance; stimulation with TNFalpha or S. typhymurium
Experimental: HT29 cells harbouring an expression plasmid with the NFkB promoter controlling an alkaline phosphatase were treated with different media and challenged with the proinflammatory TNFalpha or a gram negative bacterium such as Salmonella typhimurium. Treatments were cell culture media fermented with Bifidobacterium longum subsp infantis and (i) lactose or (ii) Lacto-N-tetraose (LNT).
The cells harbored an expression plasmid with the NF-κB promoter controlling an alkaline phosphatase so that stimulation by TNF-α or a gram negative bacterium would be indicated by fluorescence generated by interaction of the alkaline phosphatase with a fluorogenic substrate. […] This indicates LNT to exert a strong anti-inflammatory effect. Conditioned media with LNT lead to higher resistance of the cells upon proinflammatory TNFalpha or a gram negative bacterial stimulation. Intestinal epithelia cells in media conditioned by LNT (lacto-N-tetraose) and Bifidobacterium fermentation products are more resistant to proinflammatory stimulation by TNFalpha as compared to cells in a control medium conditioned by lactose and Bifidobacterium fermentation products.

Compound | activation of the inflammation marker nuclear factor kappa B (NFkB)
OC[C@H]1O[C@@H](O[C@H]2[C@H](O)[C@@H](O)C(O)O[C@@H]2CO)[C@H](O)[C@@H](O)[C@H]1O (some centres unmarked) [lactose] | very strong stimulation
CC(=O)N[C@H]1[C@H](O[C@H]2[C@@H](O)[C@@H](CO)O[C@@H](O[C@H]3[C@H](O)[C@@H](O)C(O)O[C@@H]3CO)[C@@H]2O)O[C@H](CO)[C@@H](O)[C@@H]1O[C@@H]1O[C@H](CO)[C@H](O)[C@H](O)[C@H]1O (some centres unmarked) [LNT, lacto-N-tetraose] | no stimulation
